pIC50: −log10 of the molar value.

Chain of MetAP-2 (P50579 whole entry, species assumed): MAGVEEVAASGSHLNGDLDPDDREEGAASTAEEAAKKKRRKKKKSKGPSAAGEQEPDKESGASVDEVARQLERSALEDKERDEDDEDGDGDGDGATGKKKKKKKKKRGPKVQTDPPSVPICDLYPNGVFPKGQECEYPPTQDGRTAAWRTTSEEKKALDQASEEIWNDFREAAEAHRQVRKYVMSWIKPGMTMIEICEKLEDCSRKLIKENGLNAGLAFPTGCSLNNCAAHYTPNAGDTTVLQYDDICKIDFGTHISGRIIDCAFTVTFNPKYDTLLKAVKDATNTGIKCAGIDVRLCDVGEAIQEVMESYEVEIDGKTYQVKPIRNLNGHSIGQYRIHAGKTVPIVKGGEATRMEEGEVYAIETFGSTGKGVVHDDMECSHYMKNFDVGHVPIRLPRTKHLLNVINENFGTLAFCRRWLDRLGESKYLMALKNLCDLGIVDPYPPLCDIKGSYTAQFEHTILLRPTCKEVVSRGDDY

The assay has as its target MetAP-2 (Homo sapiens, UniProt P50579). Kind of assay: MetAP-2 activity measurement (coupled enzymatic reactions, substrate Met-Arg-Ser, photometric at 450 nm). The conditions noted are these: Inhibition of MetAP-2; read-out: IC50 enzyme. Format: biochemical. How it is done:
The MetAP-2 activity is determined by coupling enzymatic reactions. The tripeptide Met-Arg-Ser (MAS) is employed as substrate. The methionine liberated is firstly converted into Metox and H2O2 by L-aminooxidase (AAO). In the second step, the peroxidase (POD) with the aid of the H2O2 catalyses the oxidation of the leukodye dianisidine to dianisidineox, the increase of which is detected photometrically at 450 nm.
MetAP-2 activity can be recorded continuously as kinetics. The reaction scheme illustrates that one mol of dianisidineox is formed per mol of methionene. The MetAP-2 enzyme activity can therefore be calculated directly as Δ absorption per time unit. Qualification of the MetAP-2 activity (mol of Met/time unit) is possible with the aid of the dianisidineox extinction coefficient. The change in extinction per time unit is depicted graphically and a slope calculation is carried out in the visually linear region of the reaction.
Consider `c1ccc2c(OC[C@H]3CCCN3c3ccnc4nncn34)cccc2c1` [Compound A4, 5-[(R)-2-(naphthalen-1-yloxymethyl)pyrrolidin-1-yl]-[1,2,4]-triazolo[4,3-a]pyrimidine], for which the pIC50 is less than 5.00.
As to `c1ccc2c(OC[C@H]3CCCN3c3ccnc4ncnn34)ccnc2c1` [Compound A8], the pIC50 was 6.00 to 8.00.
As to `FC(F)(F)Oc1ccc2nccc(OC[C@H]3CCCN3c3ccnc4ncnn34)c2c1` [Compound A9], the pIC50 was 6.00 to 8.00.
The same measure for `FC(F)(F)c1ccc2nccc(OC[C@H]3CCCN3c3ccnc4ncnn34)c2c1` [Compound A10]: 6.00 to 8.00; for `O=C(NCc1ccc(F)cc1)c1cc(OC[C@H]2CCCN2c2ccnc3ncnn23)c2ccccc2n1` [Compound A11]: 6.00 to 8.00.
To `O=C(NCCc1ccc(F)cc1)c1cc(OC[C@H]2CCCN2c2ccnc3ncnn23)c2ccccc2n1` [Compound A12] belongs 6.00 to 8.00; to `CCNC(=O)c1cc(OC[C@H]2CCCN2c2ccnc3ncnn23)c2ccccc2n1` [Compound A13], 6.00 to 8.00.
Turning to `c1ccc2c(OC[C@H]3CCCN3c3ccnc4ncnn34)nccc2c1` [Compound A16], the pIC50 is 6.00 to 8.00.
The same measure for `c1cc(OC[C@H]2CCCN2c2ccnc3ncnn23)c2ccncc2c1` [Compound A17]: 6.00 to 8.00; for `O=C(NCCCN1CCCC1=O)c1cc(OC[C@H]2CCCN2c2ccnc3ncnn23)c2ccccc2n1` [Compound A18]: 6.00 to 8.00; for `CCOC(=O)c1n[nH]c(C)c1OC[C@H]1CCCN1c1ccnc2ncnn12` [Compound A19]: 6.00 to 8.00.
To `c1ccc2c(OC[C@H]3CCCN3c3ccnc4ncnn34)ccc(CNCCN3CCOCC3)c2c1` [Compound A20] belongs 6.00 to 8.00; to `c1ccc2c(OC[C@H]3CCCN3c3ccnc4ncnn34)ccc(CNCCCN3CCOCC3)c2c1` [Compound A21], 6.00 to 8.00.
To `O=C(NCc1ccccc1)c1cc(OC[C@H]2CCCN2c2ccnc3ncnn23)c2ccccc2n1` [Compound A22] belongs 6.00 to 8.00; to `O=C(NCCc1c[nH]c2ccccc12)c1cc(OC[C@H]2CCCN2c2ccnc3ncnn23)c2ccccc2n1` [Compound A23], 6.00 to 8.00.
As to `NS(=O)(=O)c1ccc(CCNC(=O)c2cc(OC[C@H]3CCCN3c3ccnc4ncnn34)c3ccccc3n2)cc1` [Compound A24], the pIC50 is 6.00 to 8.00.
As to `CC(C)(C)OC(=O)N1CCc2cccc(OC[C@H]3CCCN3c3ccnc4ncnn34)c2C1` [Compound A25], the pIC50 is 5.00 to 6.00.
To `O=C(OC[C@H]1CCCN1c1ccnc2ncnn12)c1ccc(F)cc1` [Compound A26] belongs 6.00 to 8.00.
To `c1cc2c(c(OC[C@H]3CCCN3c3ccnc4ncnn34)c1)CNCC2` [Compound A27] belongs 6.00 to 8.00; to `O=C(NCCc1ccc(Cl)cc1)c1cc(OC[C@H]2CCCN2c2ccnc3ncnn23)c2ccccc2n1` [Compound A28], 5.00 to 6.00; to `CC(C)(C)OC(=O)N[C@H](CC(N)=O)C(=O)N1CCc2cccc(OC[C@H]3CCCN3c3ccnc4ncnn34)c2C1` [Compound A29], 6.00 to 8.00.
To `CC(C)(C)OC(=O)NCC(=O)N1CCc2cccc(OC[C@H]3CCCN3c3ccnc4ncnn34)c2C1` [Compound A31] belongs 6.00 to 8.00; to `CC(=O)N[C@@H](CC(N)=O)C(=O)N1CCc2cccc(OC[C@H]3CCCN3c3ccnc4ncnn34)c2C1` [Compound A32], 6.00 to 8.00.
In the case of `CC(=O)N1CCc2cccc(OC[C@H]3CCCN3c3ccnc4ncnn34)c2C1` [Compound A33], the pIC50 was 6.00 to 8.00.
The same measure for `O=C(c1ccno1)N1CCc2cccc(OC[C@H]3CCCN3c3ccnc4ncnn34)c2C1` [Compound A34]: 6.00 to 8.00; for `CC(C)(C)OC(=O)NCCCCN1CCc2cccc(OC[C@H]3CCCN3c3ccnc4ncnn34)c2C1` [Compound A35]: 6.00 to 8.00; for `NC(=O)C[C@@H](N)C(=O)N1CCc2cccc(OC[C@H]3CCCN3c3ccnc4ncnn34)c2C1` [Compound A36]: 6.00 to 8.00.

What is called pIC50 is −log10 of the IC50, conventionally taken in molar units.
